For 40 compounds, cytotoxicity results are on record in ChEMBL document CHEMBL3507680, “University of Dundee, Gates Library screen for HepG2 cell viability”.

The nature of the series: Human HepG2 cell viability assay in 384 well format. Conditions: HepG2 cells, read-out: Inhibition. The series is classed as toxicity, cell-based. Also noted: dose 125 nL, time 70.5 hour; concentration not given beside the values.
Take `CC(C)CNC(=O)c1c(-n2cnnn2)sc2c1CCCC2`: the cytotoxicity at 70.5 h was -4.4%.
On to `Cc1cccc(CN2CCc3ncnc(N4CCOCC4)c3CC2)n1`, for which the cytotoxicity at 70.5 h was -1.5%.
For `COc1ccc2c(c1)C1(CCN(Cc3nccs3)CC1)N(C)CC2`, the cytotoxicity at 70.5 h is 5.77%.
`Fc1ccccc1CN1C[C@H](OCC2CCOCC2)[C@H]2OCCC[C@H]21`: the cytotoxicity at 70.5 h was determined as 17.2%.
In the case of `COc1ccc(CN2CCCC(n3cccn3)C2)c(Cl)c1OC` (stereo not given), the cytotoxicity at 70.5 h was -9%.
With `Cc1ncc(C(=O)N2CCCC(C(=O)CCc3ccccc3)C2)s1` (stereo not given), the cytotoxicity at 70.5 h was -13.8%.
For the compound `CC(C)OCCC1CCCCN1S(=O)(=O)c1cnn(C)c1` (stereo not given), the cytotoxicity at 70.5 h was -4.85%.
Consider `Cn1ccc2c(C(=O)N3CC[C@@]4(O)CCCC[C@H]4C3)cccc21`, for which the cytotoxicity at 70.5 h amounted to 0.292%.
Take `Cc1cnc(CNC(=O)N(Cc2ccccc2)CC(C)(C)O)s1`: the cytotoxicity at 70.5 h is -3.13%.
Take `CCc1nc2n(n1)CC(NCc1ccccc1OCC(=O)NC)CC2` (stereo not given): the cytotoxicity at 70.5 h is -2.9%.
In the case of `Cn1ncc(N2CCC(CNC3Cc4ccccc4C3)C2)cc1=O` (stereo not given) it was 3.7%.
On to `Cn1ccnc1CN1CCN(Cc2ccccc2C#N)CC1`, for which the cytotoxicity at 70.5 h is 6.78%.
In the case of `CC(=O)N1CCCC(c2nccnc2-c2ccc(CO)cc2)C1` (stereo not given), the cytotoxicity at 70.5 h is -5.35%.
On to `CCOC(=O)C1CCN(C(=O)CN2CCCC2c2cc(C)no2)CC1` (stereo not given), for which the cytotoxicity at 70.5 h is -17.8%.
For the compound `O=C(c1ccncc1)N1CCCn2c(CN3CCCCC3)nnc2C1`, the cytotoxicity at 70.5 h is -8.6%.
With `Cc1n[nH]c(C2CN(C(=O)Cn3ccccc3=O)CCO2)n1` (stereo not given) the figure was 7.95%; with `O=C(C[C@@H]1COC[C@H]2CN(Cc3cccnc3)C[C@@H]12)NCC1CC1`, -4.39%.
With `O=S(=O)(C1CC1)N1CCn2cc(CNc3ccccn3)nc2C1` the figure was -0.935%.
Take `CSc1nc(O)c(Cc2ccccc2)c(=O)n1-c1ccccc1`: the cytotoxicity at 70.5 h is -6.85%.
With `Cc1cccc(C(=O)N2CC[C@]3(C[C@H](OCc4ccccn4)CO3)C2)c1` the figure was 11.1%.
As for `CCCc1cc(NCc2noc(COC)n2)n2nccc2n1`, the cytotoxicity at 70.5 h is -4.21%.
For `COCc1cc(NCc2ccccc2-n2cncn2)ncn1`, the cytotoxicity at 70.5 h was -10.8%.
For the compound `CCOCCn1nc(C)cc1C(=O)N1CC[C@](C)(O)C(C)(C)C1`, the cytotoxicity at 70.5 h came to 2.52%.
With `O=S(=O)(NCc1ccccc1)N1CCCN(c2ccncc2)CC1`, the cytotoxicity at 70.5 h is 28.7%.
Consider `Cc1nnc(CN2C[C@H](NC(=O)C3CCOCC3)[C@@H](C(C)C)C2)s1`, for which the cytotoxicity at 70.5 h was -6.56%.
Turning to `Cc1cccc(-n2c(C)cc(=O)[nH]c2=O)c1C`, the cytotoxicity at 70.5 h is -4.81%.
For the compound `COC(=O)Cn1nc(-c2ccccc2F)ccc1=O`, the cytotoxicity at 70.5 h worked out at 19.4%.
As for `c1ccc(CNCC2Cn3nncc3CO2)nc1` (stereo not given), the cytotoxicity at 70.5 h was -7.76%.
`Cc1cc(NS(=O)(=O)c2cnc3onc(C)c3c2)no1`: the cytotoxicity at 70.5 h was found to be 0.112%.
As to `COC(=O)N1CCN(Cc2ccccc2Cl)CC1`, the cytotoxicity at 70.5 h is -1.89%.
Consider `CN(Cc1ccco1)[C@@H]1CN(Cc2cccnc2)[C@@H]2CCCO[C@H]12`, for which the cytotoxicity at 70.5 h was -12.5%.
As for `Cc1c(CC(C#N)C(=O)Nc2cccc(O)c2)cnn1C` (stereo not given), the cytotoxicity at 70.5 h was -12.8%.
For the compound `c1cnn(C2CN(Cc3noc(C4CC4)n3)C2)c1`, the cytotoxicity at 70.5 h is -7.11%.
In the case of `CC(C)CN(Cc1nc2c(cnn2C)c(=O)[nH]1)CC(C)C`, the cytotoxicity at 70.5 h was -5.64%.
For the compound `CCc1nc(C)sc1CNC1CCN(Cc2ccccc2)C1` (stereo not given), the cytotoxicity at 70.5 h amounted to 8.22%.
In the case of `COc1ccc(NC(=O)N2CCN(CCSc3ccccc3)CC2)cc1` it was 3.81%; in that of `CCCc1nc(CN2CCN(Cc3noc(CCC)n3)CC2)no1`, 11.4%; in that of `CCc1ncnc(N2CCOCC2CCO)c1F` (stereo not given), -2.27%.
For `CCn1cnnc1CNC(=O)NC(C)c1ccccn1` (stereo not given), the cytotoxicity at 70.5 h is 9.12%.
With `CN(C)C(CNC(=O)c1cccc(C(N)=O)c1)c1ccccc1Cl` (stereo not given) the figure was 3.17%.
